The term IC50 denotes the midpoint of a concentration-inhibition curve. A word on the viability: it is the share of living cells, or the viability signal relative to a control.

Structures are written as SMILES. Some results are limits rather than exact numbers.

Data set [1] deals with melanoma A375 cells. Briefly: WST-1 antiproliferative assay. Format: cell-based. The settings on record: Homo sapiens, A-375. The source says: (§1) The A375 malignant melanoma cell line (ECACC 88113005, Salisbury, UK) was procured from the European Collection of Authenticated Cell Cultures (ECACC). The primary culture of human dermal fibroblasts (HDF) was derived from skin according to the protocol approved by the Ethical Committee of Pomeranian Medical University in Szczecin (KB-0012/02/18). The detailed protocol of fibroblast isolation, authentication, and cell culture conditions was previously described. Both cell lines were cultivated in a humidified incubator under conditions of 5% CO2 and a temperature of 37°C, using Dulbecco’s modified Eagle’s medium (DMEM) with 4500 mg/L glucose (Sigma-Aldrich Merck Group, St. Louis, MO, USA) enriched with 10% heat-inactivated fetal bovine serum (FBS, EURx, Gdańsk, Poland), 2 mM L-glutamine (Sigma-Aldrich Merck Group, St. Louis, MO, USA), and penicillin-streptomycin solution (Sigma-Aldrich Merck Group, St. Louis, MO, USA). Regular assessments for the presence of mycoplasma were conducted using the MycoAlert® Mycoplasma Detection Kit (Lonza, Rockland, ME, USA).
(§2) The evaluation of the antiproliferative activity of the compounds was performed using the Cell Proliferation Reagent WST-1 assay (Roche, Germany). This assay relies on the reduction of tetrazolium salt to formazan, with the final amount of formazan proportional to the number of viable cells. In our study, A375 cells (2×10^3) and HDF (3×10^3) were initially seeded into 96-well plates and cultured in a humidified atmosphere of 5% CO2 at 37°C. 24 hours later, the culture medium was replaced with a medium containing the tested compounds for a 48-hour incubation period at specified final concentrations. […] For control purposes, cells without the tested compounds, which contained only the vehicle (DMSO), were used. Additionally, a blank sample consisting of tested compounds in a medium (without cells) was included. After the 48-hour incubation period, the WST-1 reagent was introduced and allowed to incubate with the cells for 30 minutes. The absorbance was subsequently measured at 450 nm with background correction at 620 nm using a microplate reader (Infinite 200 Pro, Tecan, Männedorf, Switzerland). Cell viability was calculated according to the following formula: [(Atest–Ablank)/ (Acontrol − Ablank)] × 100%. These measurements were conducted in triplicate for at least three independent experiments.
In the screening step, 10 µM solutions of all 33 compounds were tested on A375 cells. […] Selected compounds (2c, 18e, 16b, 29) were tested at concentrations of 0.1, 1, 10, 50, and 100 µM. The IC50 values were determined using an online calculator (AAT Bioquest, Inc., Quest Graph™ IC50 Calculator (v.1). Retrieved from https://www.aatbio.com/tools/IC50-calculator-v1, accessed on: 2022, December 12).
(In general: Formazan colour is commonly taken as a measure of viable cells.)

The nature of data set [2]: WST-1 assay on non-tumor cells (selectivity). Format: cell-based, human. The note with it: human, primary human dermal fibroblasts (HDF); at 500 µM.
Source text: as §1, §2
(§3) For that purpose, non-tumor HDF cells were used and the concentrations of tested compounds were increased to 200 µM (0.4% DMSO) and 500 µM (1% DMSO). Appropriate controls were prepared for higher concentrations of DMSO.

The test system of data set [3] is human dermal fibroblasts (HDF). Nature of the data set: WST-1 assay on non-tumor cells (selectivity). Type of data set: cell-based.
Source text: as §1, §2, §3

Data set [4] deals with A375 cells. Nature of the data set: Annexin V-PE/7-AAD apoptosis assay (Muse). Type of data set: cell-based. The note with it: 48 h, early and late apoptotic. The method, then:
In this study, A375 cells were initially seeded into 24-well plates at a density of 1×10^4 cells per well. After 24 hours, the cell culture medium was carefully removed, and a new medium containing 16b and 29 at varying final concentrations (1, 5, and 10 µM) was added, followed by an additional 48-hour incubation. Cells in a medium containing 0.2% DMSO served as the control group. After the treatment period, cells were washed with phosphate-buffered saline (PBS), and both the cell medium and PBS wash were retained. The cells were then detached using trypsin and centrifuged. The resulting cell pellet was suspended in a fresh medium after discarding the supernatant. An equivalent volume of Muse Annexin V & Dead Cell Reagent (Luminex Corporation, Austin, TX, USA) was added and thoroughly mixed through repeated pipetting. The staining procedure was conducted for 20 minutes at room temperature in the absence of light. The Muse Cell Analyzer (Luminex Corporation, Austin, TX, USA) was utilized for analysis. This assay detects phosphatidylserine (PS) on apoptotic cell surfaces using annexin V-PE (phycoerythrin) binding. A 7-AAD (7-aminoactinomycin D) marker was used to assess cell membrane integrity. The dual staining approach enabled the identification of four distinct cell groups: viable (Annexin V-PE− and 7-AAD−), early apoptotic (Annexin V-PE+ and 7-AAD−), late apoptotic/dead (Annexin V-PE+ and 7-AAD+), and primarily nuclear debris (Annexin V-PE− and 7-AAD+). The findings were based on at least three separate experimental runs.

For data set [5], the system named is A375 cells. Nature of the data set: Live-cell imaging (time-lapse microscopy). Type of data set: cell-based. The settings on record: 5 µM, 48 h. The method, then: For live-cell imaging, A375 cells were seeded into 96-well plates at a density of 2×10^3 cells per well and allowed to grow for 24 h before imaging. Next, the cell culture medium was carefully removed, and new medium containing 16b (at 2 µM and 10 µM) and 29 (at 5 µM and 10 µM) was added and the cell culture plate was placed in the imaging chamber of Agilent BioTek Lionheart FX automated microscope (Agilent Technologies, Inc., Santa Clara, CA, USA) equipped with a Plan Fluorite 20x/0.75 objective (Olympus, Nishi-Shinjuki, Tokyo, Japan), and a FLIR Blackfly BFLY-U3-23S6M camera (Teledyne FLIR, Wilsonville, OR, USA). The temperature in the imaging chamber was set to 37°C and CO2 level to 5%. The bright-field images were acquired every 5 minutes for 48 hours.

The target of data set [6] is T1, tubulin (Sus scrofa, UniProt P02550+P02554).
T1 construct: purchased Cytoskeleton, Denver, CO, USA
T1 sequence (P02554 whole entry): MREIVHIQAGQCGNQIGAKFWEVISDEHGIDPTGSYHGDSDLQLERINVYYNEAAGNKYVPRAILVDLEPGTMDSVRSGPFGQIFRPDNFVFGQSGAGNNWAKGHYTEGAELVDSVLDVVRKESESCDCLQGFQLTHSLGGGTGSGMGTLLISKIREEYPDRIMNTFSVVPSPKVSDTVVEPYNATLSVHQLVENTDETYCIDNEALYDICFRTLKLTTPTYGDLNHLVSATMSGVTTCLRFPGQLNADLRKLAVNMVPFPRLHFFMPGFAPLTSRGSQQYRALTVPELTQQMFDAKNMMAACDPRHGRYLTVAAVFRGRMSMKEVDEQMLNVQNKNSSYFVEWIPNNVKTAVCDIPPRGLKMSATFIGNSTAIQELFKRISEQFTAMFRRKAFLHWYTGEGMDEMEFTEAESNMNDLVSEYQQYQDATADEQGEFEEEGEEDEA
T1 sequence (P02550 whole entry): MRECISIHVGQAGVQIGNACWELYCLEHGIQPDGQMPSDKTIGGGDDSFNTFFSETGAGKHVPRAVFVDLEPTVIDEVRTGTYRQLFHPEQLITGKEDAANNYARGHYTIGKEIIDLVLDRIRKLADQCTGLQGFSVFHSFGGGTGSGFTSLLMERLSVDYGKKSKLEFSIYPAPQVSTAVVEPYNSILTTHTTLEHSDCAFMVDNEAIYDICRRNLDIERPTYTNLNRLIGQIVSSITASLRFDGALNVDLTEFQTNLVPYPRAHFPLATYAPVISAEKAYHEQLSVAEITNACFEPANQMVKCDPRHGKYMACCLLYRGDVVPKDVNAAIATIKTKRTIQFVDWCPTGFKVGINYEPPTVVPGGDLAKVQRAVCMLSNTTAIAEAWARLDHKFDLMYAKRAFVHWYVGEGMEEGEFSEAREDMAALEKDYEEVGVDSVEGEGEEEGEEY
Nature of the data set: Cell free tubulin polymerization assay (fluorescence-based). Format: biochemical. The method, then: The tubulin polymerization process was evaluated using a tubulin (>99% pure) and fluorescence-based tubulin polymerization kit (Cytoskeleton, Denver, CO, USA). The effects of compounds 16b and 29 (at final concentrations of 1, 10, 50, 100 µM) on tubulin polymerization were evaluated in cell-free conditions. Paclitaxel (PTX) and vinblastine (VBL) (3 µM) were used as references, and DMSO (0.2%) was used as the vehicle control. This assay tracks the process of tubulin polymerization through an increase in fluorescence resulting from the addition of a fluorescence reporter to microtubules as polymerization occurs. After incubating the tested compounds at 37°C for 1 minute, the icy tubulin reaction mixture (2 mg/mL tubulin, 1.0 mM GTP, 15% glycerol in buffer containing 80 mM PIPES, 2.0 mM MgCl2, 0.5 mM EGTA, pH 6.9, and 10 µM fluorescent reporter) was added to the samples, which were then mixed and monitored using a spectrophotometric microplate reader (Infinite 200 Pro, Tecan) at 1-minute intervals for 90 minutes at 37°C (excitation: 360 nm, emission: 450 nm). The software installed on the plate reader was used to compute the maximum slope (Vmax) of the growth phase, measured in RFU/min, as outlined in the manufacturer's instructions. Each polymerization curve's Vmax was then standardized against the control curve's Vmax. The IC50 values were determined using an online tool (AAT Bioquest, Inc., Quest Graph™ IC50 Calculator ((v.1). Retrieved from https://www.aatbio.com/tools/IC50-calculator-v1, accessed on: 2024, May 6).

In the case of `CN1C=C(c2ccccc2)[C@@H](c2ccccc2)[C@H](C(=O)c2ccccc2)C1=S` [Compound 29], in data set [1] (10 µM, 48 h of treatment, A375, read-out: Cell proliferation (% control)), the activity at 10 µM was found to be 24.7 ± 4.73%. In addition, the IC50 in data set [1] (48 hours of treatment) is 4.85 ± 1.67 µM; in data set [3] (Fibroblast, 48 hours of treatment, normal human dermal fibroblasts), > 500 µM; in data set [6] (Vmax normalised to control, read-out: tubulin polymerization inhibition IC50) it was > 100 µM. The same compound gave a viability at 48 h, 500 µM in data set [2] of 85.9 ± 7.47%. The “Selectivity index (SI)” value in data set [3] (IC50 normal cells (HDF)/IC50 cancer cell (A375)) is > 100. The entries for the “percentage of annexin-positive cells” value in data set [4] (5 µM) and in data set [4] (10 µM) were 8.28 ± 1.80% and 21.38 ± 1.55%, respectively. Moreover, the “time-lapse observation of A375 cells” value in data set [5] was “more normal cells in the field of view than in the case of the same concentration of 16b”. In data set [6] (all tested concentrations (1-100 µM)), the “effect on tubulin polymerization” value was “not interacting with tubulin”.

The values above are taken from paper PMC13223435, “Synthesis and Antiproliferative Activity against Melanoma Cells of New Heterocyclic Hybrids Based on Pyridine and Pyrimidine Scaffolds” (Current Medicinal Chemistry, 2025).
